Publication PMC11350758, “Development of Xanthoangelol-Derived Compounds with Membrane-Disrupting Effects against Gram-Positive Bacteria” (Antibiotics, 2024)
In brackets after ≈: the same amount, converted by molar mass.

Key:
[1] = tested on: Enterococcus faecalis ATCC51299, vancomycin-resistant strain; test: MIC, broth microdilution; type: cell-based; conditions: Enterococcus faecalis ATCC51299, vancomycin-resistant; for MIC: read-out: MIC E. f. 51299
Procedure: (§1) MICs of the derivatives were determined by the micro broth dilution method according to the American Clinical and Laboratory Standards Institute (CLSI) standards. Briefly, 2-fold serial dilutions of target compounds were prepared in 96-well plates containing TSB broth. An equal volume of bacterial suspension (10^6 CFU/mL) was then pipetted into each well, and the mixture was incubated at 37 °C for 24 h. […] All biological experiments were repeated three times.

[2] = tested on: Enterococcus faecium ATCC51559, vancomycin-resistant strain; test: MIC, broth microdilution; type: cell-based; conditions: Enterococcus faecium ATCC51559, vancomycin-resistant; for MIC: read-out: MIC E. f. 51559
Procedure: as §1

red blood cells = test: Hemolysis assay; type: cell-based, Sheep; conditions: concentration required to lyse 50% of red blood cells; 37 °C, 1 h
Procedure: (§2) All target derivatives were assessed for their in vitro antibacterial activities using a broth microdilution assay to test their minimum inhibitory concentrations (MICs) against six Gram-positive strains (S. aureus ATCC31007, S. aureus ATCC25923, S. aureus ATCC43300, E. faecalis ATCC29212, B. subtilis ATCC9372, and S. epidermidis ATCC12228) and four Gram-negative strains (A. baumannii ATCC19606, K. pneumonia ATCC10031, E. coli ATCC25922, and P. aeruginosa ATCC27853). These compounds were also evaluated for their hemolytic activities and membrane selectivity by determining their HC50 (the concentration required to lyse 50% of red blood cells) and SI (HC50/MICs) values, respectively, and vancomycin was used as the positive drug.
To further detect the hemolytic toxicity and therapeutic potential of these derivatives, we proceeded to examine the hemolytic activities and membrane selectivity of these derivatives. The HC50 value was defined as the concentration needed for a compound to lyse 50% of red blood cells, and it is often used to evaluate the hemolytic toxicity to eukaryotic cells. […] The selectivity index (SI) was calculated by HC50/MICs of S. aureus ATCC43300 and was used to assess the potency and safety of the compounds. […] Thus, compound 9h was selected as a representative molecule for the in-depth in vitro and in vivo studies.
Sheep blood was used to isolate red blood cells (RBCs), which were then resuspended in 1× PBS (5%). The compounds were dissolved in PBS to give an initial concentration of 5.12 mg/mL, compound solution (100 μL) was added to the first well of a 96-well plate, two-fold serial dilutions of compounds were prepared in 96-well plates, and then 150 μL of 5% RBC suspension was added to each well. This was followed by incubation at 37 °C for 1 h. After incubation, the plate was centrifuged (3500 rpm, 5 min), and 100 μL of supernatant solution from each well was carefully pipetted into a new plate. The absorbance values were measured at 540 nm. Erythrocyte hemolysis rate = (Absorbancecompound – Absorbance negative control)/(Absorbance1% Triton X-100 − Absorbance negative control) × 100%. All biological experiments were repeated three times.

[3] = tested on: Staphylococcus aureus ATCC43300, methicillin-resistant strain; test: microbe, parasite or virus in culture; type: cell-based; conditions: Staphylococcus aureus ATCC43300 (MRSA); for MIC: ATCC 43300 / MRSA, read-out: MIC S. a 43300
Procedure: as §2, §1

[4] = tested on: Acinetobacter baumannii ATCC19606; test: MIC, broth microdilution; type: cell-based; conditions: Acinetobacter baumannii ATCC19606; for MIC: read-out: MIC A. b. 19606
Procedure: as §2, §1

[5] = tested on: Bacillus subtilis ATCC9372, penicillin-susceptible strain; test: MIC, broth microdilution; type: cell-based; conditions: Bacillus subtilis ATCC9372; for MIC: read-out: MIC B. s. 9372
Procedure: as §2, §1

[6] = tested on: Staphylococcus aureus ATCC25923, erythromycin-susceptible strain; test: MIC, broth microdilution; type: cell-based; conditions: Staphylococcus aureus ATCC25923; for MIC: read-out: MIC S. a. 25923
Procedure: as §2, §1

[7] = tested on: Pseudomonas aeruginosa ATCC27853, penicillin-susceptible strain; test: MIC, broth microdilution; type: cell-based; conditions: Pseudomonas aeruginosa ATCC27853; for MIC: read-out: MIC P. a. 27853
Procedure: as §2, §1

[8] = tested on: Klebsiella pneumonia ATCC10031; test: MIC, broth microdilution; type: cell-based; conditions: Klebsiella pneumonia ATCC10031; for MIC: Klebsiella pneumoniae, read-out: MIC K. p. 10031
Procedure: as §2, §1

[9] = tested on: Staphylococcus epidermidis ATCC12228, erythromycin-susceptible strain; test: MIC, broth microdilution; type: cell-based; conditions: Staphylococcus epidermidis ATCC12228; for MIC: read-out: MIC S. e. 12228
Procedure: as §2, §1

[10] = tested on: Escherichia coli ATCC25922, penicillin-susceptible strain; test: MIC, broth microdilution; type: cell-based; conditions: Escherichia coli ATCC25922; for MIC: read-out: MIC E. c. 25922
Procedure: as §2, §1

[11] = tested on: Staphylococcus aureus ATCC31007, penicillin-resistant strain; test: MIC, broth microdilution; type: cell-based; conditions: Staphylococcus aureus ATCC31007; for MIC: read-out: MIC S. a. 31007
Procedure: as §2, §1

[12] = tested on: Enterococcus faecalis ATCC29212, vancomycin-susceptible strain; test: MIC, broth microdilution; type: cell-based; conditions: Enterococcus faecalis ATCC29212; for MIC: read-out: MIC E. f. 29212
Procedure: as §2, §1

S. aureus = test: MIC, summary over the S. aureus strains tested; type: cell-based; conditions: Staphylococcus aureus; over the three S. aureus strains tested; read-out: MICs against S. aureus
Procedure: as §2, §1

Row | Molecule | MIC [1] | MIC [2] | HC50 (red blood cells) | MIC [3] | MIC [4] | MIC [5] | MIC [6] | MIC [7] | MIC [8] | MIC [9] | MIC [10] | MIC [11] | MIC [12] | further results
1 | CNCCN(C)CCCOc1c2c(c3c(c1C(C)=O)OC(C)(CCC=C(C)C)C=C3)OC(C)(CCC=C(C)C)C=C2 (centres unmarked) [Compound 9f, 1-(2,8-Dimethyl-5-(3-(methyl(2-(methylamino)ethyl)amino)propoxy)-2,8-bis(4-methylpent-3-en-1-yl)-2H,8H-pyrano[2,3-f]chromen-6-yl)ethan-1-one] | 4 µg/mL (≈ 7.08 µM) | 8 µg/mL (≈ 14.2 µM) | 40.3 µg/mL | 4 µg/mL (≈ 7.08 µM) | 64 µg/mL (≈ 113 µM) | 8 µg/mL (≈ 14.2 µM) | 4 µg/mL (≈ 7.08 µM) | > 128 µg/mL | 16 µg/mL (≈ 28.3 µM) | 8 µg/mL (≈ 14.2 µM) | 128 µg/mL (≈ 227 µM) | 4 µg/mL (≈ 7.08 µM) | 8 µg/mL (≈ 14.2 µM) | 
2 | colistin [Cos, reference compound] |  |  |  |  |  |  |  |  |  |  |  |  |  | MIC E. f. 51299 [1]: >128 µg/mL; MIC E. f. 51559 [2]: >128 µg/mL; MIC S. a 43300 [3]: 128 µg/mL; MIC A. b. 19606 [4]: 1 µg/mL; MIC B. s. 9372 [5]: 16 µg/mL; MIC S. a. 25923 [6]: 128 µg/mL; MIC P. a. 27853 [7]: 0.5 µg/mL; MIC K. p. 10031 [8]: 1 µg/mL; MIC S. e. 12228 [9]: 64 µg/mL; MIC E. c. 25922 [10]: 0.5 µg/mL; MIC S. a. 31007 [11]: 128 µg/mL; MIC E. f. 29212 [12]: 128 µg/mL
3 | CC(=O)c1c(OCCC[n+]2ccccc2)c2c(c3c1OC(C)(CCC=C(C)C)C=C3)OC(C)(CCC=C(C)C)C=C2 (centres unmarked) [Compound 9b, 1-(3-((6-Acetyl-2,8-dimethyl-2,8-bis(4-methylpent-3-en-1-yl)-2H,8H-pyrano[2,3-f]chromen-5-yl)oxy)propyl)pyridin-1-ium] | 4 µg/mL | 4 µg/mL | 26.6 µg/mL | 1 µg/mL | 32 µg/mL | 2 µg/mL | 2 µg/mL | > 128 µg/mL | 32 µg/mL | 32 µg/mL | 128 µg/mL | 4 µg/mL | 2 µg/mL | 
4 | CCNCCCOc1c(C(C)=O)ccc2c1C=CC(C)(CCC=C(C)C)O2 (centres unmarked) [Compound 5b, 1-(5-(3-(Ethylamino)propoxy)-2-methyl-2-(4-methylpent-3-en-1-yl)-2H-chromen-6-yl)ethan-1-one] | 32 µg/mL (≈ 86.1 µM) | 32 µg/mL (≈ 86.1 µM) | 118.4 µg/mL | 16 µg/mL (≈ 43.1 µM) | 16 µg/mL (≈ 43.1 µM) | 8 µg/mL (≈ 21.5 µM) | 16 µg/mL (≈ 43.1 µM) | > 128 µg/mL | 16 µg/mL (≈ 43.1 µM) | 8 µg/mL (≈ 21.5 µM) | 32 µg/mL (≈ 86.1 µM) | 16 µg/mL (≈ 43.1 µM) | 8 µg/mL (≈ 21.5 µM) | 
5 | CC(=O)c1ccc2c(c1OCCCNCCCN1CCCC1)C=CC(C)(CCC=C(C)C)O2 (centres unmarked) [Compound 5h] | 32 µg/mL (≈ 70.4 µM) | 32 µg/mL (≈ 70.4 µM) | 84.7 µg/mL | 8 µg/mL (≈ 17.6 µM) | 4 µg/mL (≈ 8.8 µM) | 8 µg/mL (≈ 17.6 µM) | 8 µg/mL (≈ 17.6 µM) | 16 µg/mL (≈ 35.2 µM) | 8 µg/mL (≈ 17.6 µM) | 4 µg/mL (≈ 8.8 µM) | 8 µg/mL (≈ 17.6 µM) | 8 µg/mL (≈ 17.6 µM) | 8 µg/mL (≈ 17.6 µM) | MIC (S. aureus): 8 µg/mL (≈ 17.6 µM)
6 | CC[N+](CC)(CC)CCCOc1c2c(c3c(c1C(C)=O)OC(C)(CCC=C(C)C)C=C3)OC(C)(CCC=C(C)C)C=C2 (centres unmarked) [Compound 9a, 3-((6-Acetyl-2,8-dimethyl-2,8-bis(4-methylpent-3-en-1-yl)-2H,8H-pyrano[2,3-f]chromen-5-yl)oxy)-N,N,N-triethylpropan-1-aminium] | 4 µg/mL | 4 µg/mL | 40.4 µg/mL | 4 µg/mL | 128 µg/mL | 1 µg/mL | 2 µg/mL | > 128 µg/mL | > 128 µg/mL | 2 µg/mL | > 128 µg/mL | 4 µg/mL | 4 µg/mL | MIC (S. aureus): 2 to 4 µg/mL
7 | CC(=O)c1ccc2c(c1OCCCN1CC(C)OC(C)C1)C=CC(C)(CCC=C(C)C)O2 (centres unmarked) [Compound 5d, 1-(5-(3-(2,6-Dimethylmorpholino)propoxy)-2-methyl-2-(4-methylpent-3-en-1-yl)-2H-chromen-6-yl)ethan-1-one] | > 128 µg/mL | > 128 µg/mL | 746.5 µg/mL | > 128 µg/mL | 128 µg/mL (≈ 290 µM) | > 128 µg/mL | > 128 µg/mL | > 128 µg/mL | 128 µg/mL (≈ 290 µM) | > 128 µg/mL | > 128 µg/mL | > 128 µg/mL | > 128 µg/mL | 
8 | CC(=O)c1ccc2c(c1OCCCNCCN(C)C)C=CC(C)(CCC=C(C)C)O2 (centres unmarked) [Compound 5f, 1-(5-(3-((2-(Dimethylamino)ethyl)amino)propoxy)-2-methyl-2-(4-methylpent-3-en-1-yl)-2H-chromen-6-yl)ethan-1-one] | 32 µg/mL (≈ 77.2 µM) | 32 µg/mL (≈ 77.2 µM) | 127.7 µg/mL | 8 µg/mL (≈ 19.3 µM) | 8 µg/mL (≈ 19.3 µM) | 8 µg/mL (≈ 19.3 µM) | 16 µg/mL (≈ 38.6 µM) | 32 µg/mL (≈ 77.2 µM) | 8 µg/mL (≈ 19.3 µM) | 8 µg/mL (≈ 19.3 µM) | 8 µg/mL (≈ 19.3 µM) | 16 µg/mL (≈ 38.6 µM) | 8 µg/mL (≈ 19.3 µM) | 
9 | CCN(CC)CCCNCCCOc1c2c(c3c(c1C(C)=O)OC(C)(CCC=C(C)C)C=C3)OC(C)(CCC=C(C)C)C=C2 (centres unmarked) [Compound 9g, 1-(5-(3-((3-(Diethylamino)propyl)amino)propoxy)-2,8-dimethyl-2,8-bis(4-methylpent-3-en-1-yl)-2H,8H-pyrano[2,3-f]chromen-6-yl)ethan-1-one] | 32 µg/mL (≈ 52.7 µM) | 32 µg/mL (≈ 52.7 µM) | 34.9 µg/mL | 4 µg/mL (≈ 6.59 µM) | 4 µg/mL (≈ 6.59 µM) | 2 µg/mL (≈ 3.3 µM) | 2 µg/mL (≈ 3.3 µM) | 32 µg/mL (≈ 52.7 µM) | 8 µg/mL (≈ 13.2 µM) | 1 µg/mL (≈ 1.65 µM) | 4 µg/mL (≈ 6.59 µM) | 4 µg/mL (≈ 6.59 µM) | 1 µg/mL (≈ 1.65 µM) | 
10 | CC(=O)c1ccc2c(c1OCCCN1CCN(C(C)=O)CC1)C=CC(C)(CCC=C(C)C)O2 (centres unmarked) [Compound 5e, 1-(4-(3-((6-Acetyl-2-methyl-2-(4-methylpent-3-en-1-yl)-2H-chromen-5-yl)oxy)propyl)piperazin-1-yl)ethan-1-one] | 128 µg/mL (≈ 282 µM) | 128 µg/mL (≈ 282 µM) | 62.3 µg/mL | 128 µg/mL (≈ 282 µM) | 128 µg/mL (≈ 282 µM) | 64 µg/mL (≈ 141 µM) | 128 µg/mL (≈ 282 µM) | > 128 µg/mL | > 128 µg/mL | 64 µg/mL (≈ 141 µM) | > 128 µg/mL | 128 µg/mL (≈ 282 µM) | 32 µg/mL (≈ 70.4 µM) | 
